Measured values as given in US20250186466A1, “ZLT-007 AND METHODS OF TREATING DIABETIC NEUROPATHY” (IIere Therapeutics LLC, priority 2022, published 2025).

Assays:
[1] = test system: subjects with pain associated with diabetic neuropathy; assay: 12-week clinical study, Daily Pain Numeric Rating Scale (NRS); assay type: in vivo, human
Description: (§1) To determine the effect of ZLT-L-007 in subjects with pain associated with diabetic neuropathy, an observational 12-week clinical study to evaluate the efficacy, safety and tolerability of ZLT-L-007 versus Pregabalin (300 Mg/Day) was conducted.
Primary endpoints of the study included: 1. Recording Daily Pain Numeric Rating Scale (NRS) at Baseline, Day 30, Day 60, and Day 90.
Three groups were used to evaluate the effect of ZLT-L-007 in subjects with pain associated with diabetic neuropathy: Group 1 (Pregabalin), Group 2 (ZLT-L-007 pharmaceutical composition+terpene composition), and Group 3 (Pregabalin and ZLT-L-007 pharmaceutical composition+terpene composition). More detailed information regarding each group's treatment is provided below.
Group 3 subjects were already taking pregabalin/Lyrica® at the prescribed dose recommended by their doctor. Subjects then received one capsule by mouth twice daily of the ZLT-L-007 pharmaceutical composition. Participants were also given one capsule by mouth twice daily of a terpene composition that comprised 0.25 mg of myrcene and 0.25 mg of linalool.
Group 3 was administered one capsule by mouth twice daily of the ZLT-L-007 pharmaceutical composition.. Participants were also given one capsule by mouth twice daily of a terpene composition that comprised 0.25 mg of myrcene and 0.25 mg of linalool.

[2] = test system: subjects with pain associated with diabetic neuropathy; assay: 12-week clinical study, pain Visual Analog Scale (VAS); assay type: in vivo, human; settings: Day 30, Day 60, Day 90
Description: as §1

For `CC(C)C[C@H](CN)CC(=O)O` [Pregabalin], the “NRS Severity, median percent change from baseline” value ([1]; 30-day follow-up, ZLT-L-007 one capsule by mouth twice daily plus terpene capsule) was −33.33%, the “NRS Severity, median percent change from baseline” value ([1]; 60-day follow-up) was −20.00% and the “NRS Severity, median percent change from baseline” value ([1]; 90-day follow-up) was −35.00%. For the same molecule, the “NRS Severity, median percent change from baseline, range” value ([1]; all follow-up periods) was −20.00% to −35.00% and the “VAS pain severity, median percent change from baseline, range” value [2] was −33.33% to −35.00%.
